Source: PubChem BioAssay AID1963421 (Molecular Pharmacology Branch, DTP, NCI, 2024)

System: 519858-162-T-J1-PDC complex spheroid growth, % test/control
Experiment: Anticancer human tumor 519858-162-T-J1-PDC patient-derived colon adenocarcinoma cell line growth inhibition [Asc]
Settings: for IC50: curve of first compound; for viability, T/C: stronger effect = lower value
How it was run: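 Concentration series start at each agent's clinical Cmax, or at 10 microM when none is established, and drop in half-log steps; agents are applied alone or together to complex spheroids built with HUVEC and hMSC.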

[1] = second compound 0.0316 µM, first compound 0.00316 µM
[2] = second compound 0.0316 µM, first compound 0.01 µM
[3] = second compound 0.0316 µM, first compound 0.0316 µM
[4] = second compound 0.0316 µM, first compound 0.1 µM
[5] = second compound 0.0316 µM, first compound 0.316 µM
[6] = second compound 0.0316 µM, first compound 1 µM
[7] = second compound 0.1 µM, first compound 0.00316 µM
[8] = second compound 0.1 µM, first compound 0.01 µM
[9] = second compound 0.1 µM, first compound 0.0316 µM
[10] = second compound 0.1 µM, first compound 0.1 µM
[11] = second compound 0.1 µM, first compound 0.316 µM
[12] = second compound 0.1 µM, first compound 1 µM
[13] = second compound 0.316 µM, first compound 0.00316 µM
[14] = second compound 0.316 µM, first compound 0.01 µM
[15] = second compound 0.316 µM, first compound 0.0316 µM
[16] = second compound 0.316 µM, first compound 0.1 µM
[17] = second compound 0.316 µM, first compound 0.316 µM
[18] = second compound 0.316 µM, first compound 1 µM
[19] = second compound 1 µM, first compound 0.00316 µM
[20] = second compound 1 µM, first compound 0.01 µM
[21] = second compound 1 µM, first compound 0.0316 µM
[22] = second compound 1 µM, first compound 0.1 µM
[23] = second compound 1 µM, first compound 0.316 µM
[24] = second compound 1 µM, first compound 1 µM
[25] = second compound 3.16 µM, first compound 0.00316 µM
[26] = second compound 3.16 µM, first compound 0.01 µM
[27] = second compound 3.16 µM, first compound 0.0316 µM
[28] = second compound 3.16 µM, first compound 0.1 µM
[29] = second compound 3.16 µM, first compound 0.316 µM
[30] = second compound 3.16 µM, first compound 1 µM
[31] = second compound 10 µM, first compound 0.00316 µM
[32] = second compound 10 µM, first compound 0.01 µM
[33] = second compound 10 µM, first compound 0.0316 µM
[34] = second compound 10 µM, first compound 0.1 µM
[35] = second compound 10 µM, first compound 0.316 µM
[36] = second compound 10 µM, first compound 1 µM
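Also: seven day drug exposure begun three days after spheroid seeding.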
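For viability, T/C in this document: 100% = DMSO vehicle wells and lower values mean less viable spheroid.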

Molecule `CCN1CCN(Cc2ccc(Nc3ncc(F)c(-c4cc(F)c5nc(C)n(C(C)C)c5c4)n3)nc2)CC1` + Cc1c(S(C)(=O)=O)c(-c2cc(F)cc(N3CCN(c4ccc(NS(=O)(=O)c5ccc(NC(CCN6CCC(C(=O)OCCCP(=O)(O)O)CC6)CSc6ccccc6)c(S(=O)(=O)C(F)(F)F)c5)cc4)CC3)c2)c(-c2ccc(Cl)cc2)n1C(C)C has an IC50 (second compound 0.0316 µM) greater than 1000 nM, an IC50 (second compound 0.1 µM) greater than 1000 nM and an IC50 (second compound 0.316 µM) greater than 1000 nM. The IC50 (second compound 1 µM) was greater than 1000 nM, the IC50 (second compound 3.16 µM) was greater than 1000 nM and the IC50 (second compound 10 µM) was greater than 1000 nM. It also gave a viability, T/C [1] of 124%, a viability, T/C [2] of 106% and a viability, T/C [3] of 62.9%. The viability, T/C [4] was 92%, the viability, T/C [5] was 84.8% and the viability, T/C [6] was 72.3%. For the same molecule, the viability, T/C [7] was 109%, the viability, T/C [8] was 95.8% and the viability, T/C [9] was 89.2%. The viability, T/C [10] was 86.3%, the viability, T/C [11] was 79.5% and the viability, T/C [12] was 112%. The viability, T/C [13] was 119%, the viability, T/C [14] was 109% and the viability, T/C [15] was 98.3%. For the same molecule, the viability, T/C [16] was 60.5%, the viability, T/C [17] was 95.6% and the viability, T/C [18] was 69.7%. For the same molecule, the viability, T/C [19] was 87.4%, the viability, T/C [20] was 76% and the viability, T/C [21] was 62.6%. For the same molecule, the viability, T/C [22] was 79%, the viability, T/C [23] was 75.2% and the viability, T/C [24] was 56.4%. The viability, T/C [25] was 90.5%, the viability, T/C [26] was 68.6% and the viability, T/C [27] was 101%. For the same molecule, the viability, T/C [28] was 73.7%, the viability, T/C [29] was 67% and the viability, T/C [30] was 57.2%. For the same molecule, the viability, T/C [31] was 77.7%, the viability, T/C [32] was 61.1% and the viability, T/C [33] was 62.6%. For the same molecule, the viability, T/C [34] was 72.8%, the viability, T/C [35] was 63.3% and the viability, T/C [36] was 68%.

`Cn1ncnc1[C@H]1c2n[nH]c(=O)c3cc(F)cc(c23)N[C@@H]1c1ccc(F)cc1` + Cc1c(S(C)(=O)=O)c(-c2cc(F)cc(N3CCN(c4ccc(NS(=O)(=O)c5ccc(NC(CCN6CCC(C(=O)OCCCP(=O)(O)O)CC6)CSc6ccccc6)c(S(=O)(=O)C(F)(F)F)c5)cc4)CC3)c2)c(-c2ccc(Cl)cc2)n1C(C)C was tested, and the IC50 (second compound 0.0316 µM) was greater than 100 nM, the IC50 (second compound 0.1 µM) was greater than 100 nM and the IC50 (second compound 0.316 µM) was greater than 100 nM. The IC50 (second compound 1 µM) was greater than 100 nM, the IC50 (second compound 3.16 µM) was greater than 100 nM and the IC50 (second compound 10 µM) was 100 nM. It also gave a viability, T/C (second compound 0.0316 µM, first compound 0.000316 µM) of 119%, a viability, T/C (second compound 0.0316 µM, first compound 0.001 µM) of 120% and a viability, T/C [1] of 73%. For the same molecule, the viability, T/C [2] was 100%, the viability, T/C [3] was 69% and the viability, T/C [4] was 95.4%. It also gave a viability, T/C (second compound 0.1 µM, first compound 0.000316 µM) of 121%, a viability, T/C (second compound 0.1 µM, first compound 0.001 µM) of 78.9% and a viability, T/C [7] of 85.8%. It also gave a viability, T/C [8] of 123%, a viability, T/C [9] of 76.6% and a viability, T/C [10] of 54.9%. For the same molecule, the viability, T/C (second compound 0.316 µM, first compound 0.000316 µM) was 115%, the viability, T/C (second compound 0.316 µM, first compound 0.001 µM) was 101% and the viability, T/C [13] was 61.3%. The viability, T/C [14] was 92.9%, the viability, T/C [15] was 83.7% and the viability, T/C [16] was 89.4%. The viability, T/C (second compound 1 µM, first compound 0.000316 µM) was 88.8%, the viability, T/C (second compound 1 µM, first compound 0.001 µM) was 76.5% and the viability, T/C [19] was 131%. For the same molecule, the viability, T/C [20] was 60.8%, the viability, T/C [21] was 74.6% and the viability, T/C [22] was 90.5%. The viability, T/C (second compound 3.16 µM, first compound 0.000316 µM) was 104%, the viability, T/C (second compound 3.16 µM, first compound 0.001 µM) was 87.1% and the viability, T/C [25] was 83.7%. The viability, T/C [26] was 75.2%, the viability, T/C [27] was 113% and the viability, T/C [28] was 79.1%. For the same molecule, the viability, T/C (second compound 10 µM, first compound 0.000316 µM) was 69.5%, the viability, T/C (second compound 10 µM, first compound 0.001 µM) was 95.7% and the viability, T/C [31] was 63.2%. For the same molecule, the viability, T/C [32] was 49.6%, the viability, T/C [33] was 61.3% and the viability, T/C [34] was 61.4%.

Work on `O=C(c1ccc(F)c(F)c1Nc1ccc(I)cc1F)N1CC(O)([C@@H]2CCCCN2)C1` + Cc1c(S(C)(=O)=O)c(-c2cc(F)cc(N3CCN(c4ccc(NS(=O)(=O)c5ccc(NC(CCN6CCC(C(=O)OCCCP(=O)(O)O)CC6)CSc6ccccc6)c(S(=O)(=O)C(F)(F)F)c5)cc4)CC3)c2)c(-c2ccc(Cl)cc2)n1C(C)C yielded an IC50 (second compound 0.0316 µM) of 283 nM, an IC50 (second compound 0.1 µM) of 212 nM and an IC50 (second compound 0.316 µM) of 164 nM. The IC50 (second compound 1 µM) was 232 nM, the IC50 (second compound 3.16 µM) was 235 nM and the IC50 (second compound 10 µM) was 122 nM. For the same molecule, the viability, T/C [1] was 113%, the viability, T/C [2] was 84.2% and the viability, T/C [3] was 78.6%. It also gave a viability, T/C [4] of 115%, a viability, T/C [5] of 44.9% and a viability, T/C [6] of 14.5%. It also gave a viability, T/C [7] of 93.6%, a viability, T/C [8] of 91.4% and a viability, T/C [9] of 76.5%. The viability, T/C [10] was 50.8%, the viability, T/C [11] was 54.6% and the viability, T/C [12] was 18.9%. For the same molecule, the viability, T/C [13] was 81.8%, the viability, T/C [14] was 92.2% and the viability, T/C [15] was 110%. It also gave a viability, T/C [16] of 63.8%, a viability, T/C [17] of 39.2% and a viability, T/C [18] of 24.1%. It also gave a viability, T/C [19] of 108%, a viability, T/C [20] of 92.1% and a viability, T/C [21] of 72.5%. For the same molecule, the viability, T/C [22] was 54.7%, the viability, T/C [23] was 66% and the viability, T/C [24] was 19.5%. It also gave a viability, T/C [25] of 61.8%, a viability, T/C [26] of 82.7% and a viability, T/C [27] of 60.3%. The viability, T/C [28] was 72%, the viability, T/C [29] was 43.3% and the viability, T/C [30] was 12.9%. The viability, T/C [31] was 75.6%, the viability, T/C [32] was 59.8% and the viability, T/C [33] was 47.1%. It also gave a viability, T/C [34] of 60.5%, a viability, T/C [35] of 39.3% and a viability, T/C [36] of 9.69%.
